Test results: patent US10858335B2 (Rigel Pharmaceuticals, Inc., priority 2014, dated 2020)

tested on: GDF8 signaling (p-SMAD-3 (Ser423/425)); test: AlphaScreen SureFire SMAD3 (p-Ser423/425) assay, GDF8-stimulated cells (GDF pSMAD); assay type: cell-based; details: MPC11; GDF8-stimulated; p-SMAD3 AlphaScreen; read-out: GDF pSMAD (MPC11) (inhibition of GDF8 signaling)

| SMILES | IC50 [µM] |
| --- | --- |
| Cc1cc(-c2ncccc2-c2ccc3ncc(C(=O)NC4CC5CCC(C4)N5C)n3c2)ccc1F (stereo not drawn) [compound 713, endo-6-(2-(4-Fluoro-3-methylphenyl)pyridin-3-yl)-N-(8-methyl-8-azabicyclo[3.2.1]octan-3-yl)imidazo[1,2-a]pyridine-3-carboxamide] | 10.2 |

same assay, conditions: Mus musculus, MPC-11, GDF8-stimulated pSMAD3, MPC11; tested as the salt form given; read-out: GDF pSMAD (MPC11) (μM), inhibition of GDF8 signaling

| SMILES | IC50 [µM] |
| --- | --- |
| Cc1cnc(-c2ccc(F)c(Cl)c2)c(-c2ccc3ncnc(N)c3c2)c1 [compound 990, 6-(2-(3-chloro-4-fluorophenyl)-5-methylpyridin-3-yl)quinazolin-4-amine] | 0.285 |
| Nc1ncnc2ccc(-c3cc(F)cnc3-c3cccc(O)c3)cc12 [compound 1000, 3-(3-(4-aminoquinazolin-6-yl)-5-fluoropyridin-2-yl)phenol] | 6.5 |
| Cc1ccc(F)c(-c2ncccc2-c2ccc3ncnc(N)c3c2)c1 [compound 1004, 6-(2-(2-fluoro-5-methylphenyl)pyridin-3-yl)quinazolin-4-amine] | 0.203 |
| Nc1ncnc2ccc(-c3cccnc3-c3ccc(F)c(Cl)c3F)cc12 [compound 978, 6-(2-(3-chloro-2,4-difluorophenyl)pyridin-3-yl)quinazolin-4-amine] | 1.87 |
| COc1ccc(Cl)c(-c2ncccc2-c2ccc3ncnc(N)c3c2)c1 [compound 1011, 6-(2-(2-chloro-5-methoxyphenyl)pyridin-3-yl)quinazolin-4-amine] | 3.33 |

same assay, conditions: Mus musculus, MPC-11, MPC11; GDF8-stimulated; p-SMAD3 AlphaScreen; read-out: GDF pSMAD (MPC11) (inhibition of GDF8 signaling)

| SMILES | IC50 [µM] |
| --- | --- |
| Cc1cc(-c2ncccc2-c2ccc3ncc(CO)n3c2)ccc1F [compound 565, (6-(2-(4-Fluoro-3-methylphenyl)pyridin-3-yl)imidazo[1,2-a]pyridin-3-yl)methanol] | 0.406 |
| Cc1cc(-c2ncccc2-c2ccc3ncnc(Oc4ccc(C#N)cc4)c3c2)ccc1F [compound 440, 4-((6-(2-(4-Fluoro-3-methylphenyl)pyridin-3-yl)quinazolin-4-yl)oxy)benzonitrile] | 1.86 |
| Cc1cc(-c2ncccc2-c2ccc3ncc(C(=O)NCCCN(C)C)n3c2)ccc1F [compound 608, N-(3-(Dimethylamino)propyl)-6-(2-(4-fluoro-3-methylphenyl)pyridin-3-yl)imidazo[1,2-a]pyridine-3-carboxamide] | 0.326 |
| Cc1cccc(-c2ncccc2-c2ccc3ncn(C(C)C)c3c2)c1 [compound 47] | 8.23 |
| CC(=O)Nc1ccc(CNc2cnc(-c3ccc(F)c(C)c3)c(-c3ccc4ncsc4c3)c2)cc1 [compound 338, N-(4-(((5-(Benzo[d]thiazol-6-yl)-6-(4-fluoro-3-methylphenyl)pyridin-3-yl)amino)methyl)phenyl)acetamide] | 0.164 |
| COc1cccc(-c2ncccc2-c2ccc3nccn3c2)c1 [Compound 52, 6-(2-(3-Methoxyphenyl)pyridin-3-yl)imidazo[1,2-a]pyridine] | 1.4 |
| O=C(NCCCN1CCCC1=O)c1cnc2ccc(-c3cccnc3-c3cccc(Cl)c3)cn12 [compound 726, 6-(2-(3-Chlorophenyl)pyridin-3-yl)-N-(3-(2-oxopyrrolidin-1-yl)propyl)imidazo[1,2-a]pyridine-3-carboxamide] | 0.565 |
| Cc1cc(-c2ncccc2-c2ccn3ncc(C(=O)NCCN4CCOCC4)c3c2)ccc1F [compound 674, 5-(2-(4-Fluoro-3-methylphenyl)pyridin-3-yl)-N-(2-morpholinoethyl)pyrazolo[1,5-a]pyridine-3-carboxamide] | 0.211 |
| Cc1cc(-c2ncccc2-c2ccc3ncc(C#N)n3n2)ccc1F [compound 947, 6-(2-(4-Fluoro-3-methylphenyl)pyridin-3-yl)imidazo[1,2-b]pyridazine-3-carbonitrile] | 0.429 |
| FC(F)(F)c1cccc(-c2ncccc2-c2ccc3[nH]ncc3c2)c1 [Compound 197, 5-(2-(3-(Trifluoromethyl)phenyl)pyridin-3-yl)-1H-indazole] | 0.359 |
| Cc1cc(-c2ncccc2-c2ccc3ncc(C(F)(F)F)n3c2)ccc1F [compound 555, 6-(2-(4-Fluoro-3-methylphenyl)pyridin-3-yl)-3-(trifluoromethyl)imidazo[1,2-a]pyridine] | 0.156 |
| Cc1cc(-c2ncc(NCCCN3CCN(C)CC3)cc2-c2ccc3ncsc3c2)ccc1F [compound 320, 5-(Benzo[d]thiazol-6-yl)-6-(4-fluoro-3-methylphenyl)-N-(3-(4-methylpiperazin-1-yl)propyl)pyridin-3-amine] | 2.99 |
| [2H]C([2H])([2H])c1cccc(-c2ncccc2-c2ccc3nccnc3c2)c1 [compound 605, 6-(2-(3-(Methyl-d3)phenyl)pyridin-3-yl)quinoxaline] | 7.94 |
| Cc1cc(-c2ncccc2-c2ccc3ncn(CCCN4CCOCC4)c3c2)ccc1F [compound 252, 4-(3-(6-(2-(4-fluoro-3-methylphenyl)pyridin-3-yl)-1H-benzo[d]imidazol-1-yl)propyl)morpholine] | 12.7 |
| COC(=O)c1cc(-c2cccnc2-c2ccc(F)c(C)c2)cc2cn[nH]c12 [compound 190, Methyl 5-(2-(4-fluoro-3-methylphenyl)pyridin-3-yl)-1H-indazole-7-carboxylate] | 1.55 |
| Cc1cc(-c2ncccc2-c2ccc3ncsc3c2)ccc1F [Compound 159, 6-(2-(4-Fluoro-3-methylphenyl)pyridin-3-yl)benzo[d]thiazole] | 0.13 |
| Cn1cnc2ccc(-c3cccnc3-c3cccc4cccnc34)cc2c1=O [compound 382, 3-Methyl-6-(2-(quinolin-8-yl)pyridin-3-yl)quinazolin-4(3H)-one] | 14.8 |
| Cc1ccc(Nc2ncnc3ccc(-c4cccnc4-c4ccc(F)c(Cl)c4)cc23)cn1 [compound 491, 6-(2-(3-Chloro-4-fluorophenyl)pyridin-3-yl)-N-(6-methylpyridin-3-yl)quinazolin-4-amine] | 9.22 |
| Cc1cc(-c2ncccc2-c2ccc3[nH]nc(N)c3c2)ccc1F [compound 788, 5-(2-(4-Fluoro-3-methylphenyl)pyridin-3-yl)-1H-indazol-3-amine] | 4.04 |

| SMILES | IC50 [µM] |
| --- | --- |
| C1=C(c2cccc(-c3ncccc3-c3cnc4[nH]ncc4c3)c2)CCC1 [Compound 170, 5-(2-(3-Cyclopentenylphenyl)pyridin-3-yl)-1H-pyrazolo[3,4-b]pyridine] | 1.96 |
| FC(F)(F)c1cccc(-c2ncccc2-c2ccc3nccnc3c2)c1 [compound 542, 6-(2-(3-(Trifluoromethyl)phenyl)pyridin-3-yl)quinoxaline] | 1.72 |
| Cc1ccc(F)c(-c2ncccc2-c2cnc3cn[nH]c3c2)c1 [Compound 140, 6-(2-(2-Fluoro-5-methylphenyl)pyridin-3-yl)-1H-pyrazolo[4,3-b]pyridine] | 2.89 |
| CCOc1cnc(-c2ccc(F)c(C)c2)c(-c2ccc3[nH]ncc3c2)c1 [Compound 1, 5-(5-Ethoxy-2-(4-fluoro-3-methylphenyl)pyridin-3-yl)-1H-indazole] | 1.65 |
| N#Cc1cnc2ccc(-c3cccnc3-c3cccc(C4CC4)c3)cn12 [compound 559, 6-(2-(3-Cyclopropylphenyl)pyridin-3-yl)imidazo[1,2-a]pyridine-3-carbonitrile] | 0.162 |
| N#Cc1cnc2ccc(-c3cccnc3-c3cccc(Cl)c3)cn12 [compound 697, 6-(2-(3-Chlorophenyl)pyridin-3-yl)imidazo[1,2-a]pyridine-3-carbonitrile] | 0.415 |
| Clc1ccc(Cl)c(-c2ncccc2-c2ccc3ncnn3c2)c1 [compound 771, 6-(2-(2,5-Dichlorophenyl)pyridin-3-yl)-[1,2,4]triazolo[1,5-a]pyridine] | 1.11 |
| COc1cccc(-c2ncccc2-c2ccc3ncsc3c2)c1 [compound 669, 6-(2-(3-Methoxyphenyl)pyridin-3-yl)benzo[d]thiazole] | 0.499 |
| CC(C)NC(=O)Nc1cnc(-c2cccc(C3CC3)c2)c(-c2ccc3[nH]ncc3c2)c1 [compound 213, 1-(6-(3-Cyclopropylphenyl)-5-(1H-indazol-5-yl)pyridin-3-yl)-3-isopropylurea] | 4.44 |
| NC(=O)c1ccnc2ccc(-c3cccnc3-c3cc(Cl)ccc3F)cc12 [compound 849, 6-(2-(5-Chloro-2-fluorophenyl)pyridin-3-yl)quinoline-4-carboxamide] | 18.1 |
| N#Cc1cnc2ccc(-c3cccnc3-c3cc(Cl)ccc3F)cn12 [compound 719, 6-(2-(5-Chloro-2-fluorophenyl)pyridin-3-yl)imidazo[1,2-a]pyridine-3-carbonitrile] | 0.402 |
| Cc1cc(-c2ncccc2-c2cc(C(=O)O)c3[nH]ncc3c2)ccc1F [compound 195, 5-(2-(4-Fluoro-3-methylphenyl)pyridin-3-yl)-1H-indazole-7-carboxylic acid] | 9.52 |
| Cc1cc(-c2ncccc2-c2ccc3ncn(C)c(=O)c3c2)ccc1F [compound 340, 6-(2-(4-Fluoro-3-methylphenyl)pyridin-3-yl)-3-methylquinazolin-4(3H)-one] | 0.464 |
| Cc1cc(-c2ncc(Nc3ccc(C(N)=O)cc3)cc2-c2ccc3ncsc3c2)ccc1F [compound 310, 4-((5-(Benzo[d]thiazol-6-yl)-6-(4-fluoro-3-methylphenyl)pyridin-3-yl)amino)benzamide] | 1.14 |
| c1cc(-c2ncccc2-c2ccc3ncc(N4CCCC4)n3c2)cc(C2CC2)c1 [compound 563, 6-(2-(3-Cyclopropylphenyl)pyridin-3-yl)-3-(pyrrolidin-1-yl)imidazo[1,2-a]pyridine] | 5.2 |
| NC(=O)c1cnc2ccc(-c3cccnc3-c3ccc(F)c(Cl)c3)cn12 [compound 843, 6-(2-(3-Chloro-4-fluorophenyl)pyridin-3-yl)imidazo[1,2-a]pyridine-3-carboxamide] | 0.0213 |
| Cc1cc(-c2ncc(CN(C)C)cc2-c2ccc3nccnc3c2)ccc1F [compound 226, 1-(6-(4-Fluoro-3-methylphenyl)-5-(quinoxalin-6-yl)pyridin-3-yl)-N,N-dimethylmethanamine] | 10 |
| Fc1ccc(-c2ncccc2-c2ccn3nccc3n2)c(F)c1Cl [compound 965, 5-(2-(3-Chloro-2,4-difluorophenyl)pyridin-3-yl)pyrazolo[1,5-a]pyrimidine] | 5.19 |
